Activity calls are given as the source filed them. The calls are words filed in the database; no cut-off is given here.
Tests used:
MEXF989 [1] = test: Tested for its inhibitory activity against human melanoma cells ([…]) using a clonogenic assay at 0.01-1.0 uM; […]; type: functional, cell-based
LXFL 529/11 [2] = test: Tested for its inhibitory activity against xenograft (LXFL 529/11, lung, large cell) using a clonogenic assay at 0.01-1.0 uM; No activity; type: functional, cell-based; conditions: Homo sapiens
[3] = Tested for the half life period at pH 5.0; type: ADME
MEXF989 [4] = test: Tested for its inhibitory activity against human melanoma cells (MEFX 989) using a clonogenic assay at 0.01-1.0 uM; type: functional; conditions: MEXF 989
LXFL 529/11 [5] = test: Tested for its inhibitory activity against xenograft (LXFL 529/11, lung, large cell) using a clonogenic assay; type: functional, Homo sapiens

| half-life [3] [h] | IC90 (LXFL 529/11 [5]) [nM] | Structure (SMILES) | Activity (MEXF989 [1]) | Activity (LXFL 529/11 [2]) | IC70 (MEXF989 [4]) [nM] |
| --- | --- | --- | --- | --- | --- |
|  |  | COc1cccc2c1C(=O)c1c(O)c3c(c(O)c1C2=O)C[C@@](O)(C(C)=O)C[C@@H]3OC1CC(NC(=O)c2cccc(N3C(=O)C=CC3=O)c2)C(O)C(C)O1 (stereo not given in full) | inactive | inactive |  |
| 20 | <10 | COc1cccc2c1C(=O)c1c(O)c3c(c(O)c1C2=O)C[C@@](O)(/C(C)=N/NC(=O)c1cccc(N2C(=O)C=CC2=O)c1)C[C@@H]3OC1CC(N)C(O)C(C)O1 (stereo not given in full) |  |  | 390 |
|  | 30 | COc1cccc2c1C(=O)c1c(O)c3c(c(O)c1C2=O)C[C@@](O)(C(C)=O)C[C@@H]3O[C@H]1C[C@H](N)[C@H](O)[C@H](C)O1 [DAUNORUBICIN] |  |  | 260 |
| 30 | <10 | COc1cccc2c1C(=O)c1c(O)c3c(c(O)c1C2=O)C[C@@](O)(/C(C)=N/NC(=O)c1ccc(CN2C(=O)C=CC2=O)cc1)C[C@@H]3OC1CC(N)C(O)C(C)O1 (stereo not given in full) |  |  | 22 |

— ChEMBL document CHEMBL1150981, “Synthesis of new maleimide derivatives of daunorubicin and biological activity of acid labile transferrin conjugates” (Bioorg Med Chem Lett, 1997)
